Experimental data published in patent US9999222B2, “Herbicidal combination comprising azines” (BASF SE, priority 2014, dated 2018).
Like-named read-outs stand apart in the source and are kept apart here.

Experiments:
Assay in all cases: Greenhouse test, pre-emergence treatment
[1] = system: ECHCG; assay type: in vivo, Echinocloa crus-galli; conditions: Echinochloa crus-galli, 480 h, use rate 31.25 g ai/ha, read-out: observed % activity 20 DAT
How it was run: (§1)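 Seeds were sown in loamy sand with about 3.0% humus, and compounds in water were sprayed immediately after sowing, alone or as combinations formulated as 10% emulsion concentrates. Plants grew under hoods until rooted, at 10-25 °C or 20-35 °C by species, for 2 to 4 weeks. Damage was scored 0-100 (100 = no emergence or complete destruction), and Colby expected values were E=X+Y−(X·Y/100).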

[2] = system: VIOAR; assay type: in vivo, Viola arvensis
How it was run: as §1

[3] = system: EPHHL; assay type: in vivo, Euphorbia heterophylla; conditions: Euphorbia heterophylla, pre-emergence, 480 h, pre-emergence, 250 g ai/ha; read-out: observed % activity 20 DAT
How it was run: as §1

[4] = system: POLCO; assay type: in vivo, Polygonum convolvulus; conditions: Fallopia convolvulus, 480 h, pre-emergence, read-out: observed % activity 20 DAT
How it was run: as §1

[5] = system: GERPU; assay type: in vivo, Geranium pusillum; conditions: Geranium pusillum, pre-emergence, 480 h, pre-emergence, read-out: observed % activity 20 DAT
How it was run: as §1

[6] = system: LOLMU; assay type: in vivo, Lolium multiflorum; conditions: Lolium multiflorum, pre-emergence, 480 h, pre-emergence, read-out: observed % activity 20 DAT
How it was run: as §1

[7] = system: PHACA; assay type: in vivo, Phalaris canariensis; conditions: pre-emergence, pre-emergence
How it was run: as §1

[8] = system: SETFA; assay type: in vivo, Setaria faberi
How it was run: as §1

[9] = system: AVEFA; assay type: in vivo, Avena fatua; conditions: pre-emergence
How it was run: as §1

[10] = system: BRADC; assay type: in vivo, Brachiaria decumbens; conditions: Urochloa decumbens, pre-emergence, 480 h, pre-emergence, read-out: observed % activity 20 DAT
How it was run: as §1

[11] = system: ALOMY; assay type: in vivo, Alopecurus myosuroides; conditions: Alopecurus myosuroides, pre-emergence, 480 h, pre-emergence, read-out: observed % activity 20 DAT
How it was run: as §1

[12] = system: KCHSC; assay type: in vivo, Kochia scoparia; conditions: Bassia scoparia, 480 h, pre-emergence, read-out: observed % activity 20 DAT
How it was run: as §1

## COCC(C)N(C(=O)CCl)c1c(C)csc1C (stereo not shown) [Dimethenamid, dimethenamid]
[1]; 20 DAT
  pest or weed control at 31.25 g/ha: 98%
[1]
  inhibition at 31.25 g/ha: 98%
[2]; Viola arvensis, 480 h, use rate 31.25 g ai/ha, read-out: observed % activity 20 DAT
  inhibition at 31.25 g/ha: 0%
[2]; Viola arvensis, 480 h, use rate 62.5 g ai/ha, read-out: observed % activity 20 DAT
  inhibition at 62.5 g/ha: 0%
[2]; Viola arvensis, 480 h, use rate 125 g ai/ha, read-out: observed % activity 20 DAT
  inhibition at 125 g/ha: 0%
[2]; use rate 31.25 g ai/ha
  observed % activity 20 DAT: 0%
[2]; use rate 62.5 g ai/ha
  observed % activity 20 DAT: 0%
[2]; use rate 125 g ai/ha
  observed % activity 20 DAT: 0%
[3]
  pest or weed control at 250 g/ha: 25%
[4]; use rate 31.25 g ai/ha, 20 DAT
  pest or weed control at 31.25 g/ha: 0%
[4]; use rate 62.5 g ai/ha, 20 DAT
  pest or weed control at 62.5 g/ha: 0%
[4]; use rate 125 g ai/ha, 20 DAT
  pest or weed control at 125 g/ha: 0%
[4]; use rate 31.25 g ai/ha
  inhibition at 31.25 g/ha: 0%
[4]; use rate 62.5 g ai/ha
  inhibition at 62.5 g/ha: 0%
[4]; use rate 125 g ai/ha
  inhibition at 125 g/ha: 0%
[5]; 250 g ai/ha
  pest or weed control at 250 g/ha: 98%
[5]; use rate 15.625 g ai/ha
  inhibition at 15.625 g/ha: 50%
[5]; use rate 31.25 g ai/ha
  inhibition at 31.25 g/ha: 70%
[5]; use rate 62.5 g ai/ha, 20 DAT
  pest or weed control at 62.5 g/ha: 85%
[5]; use rate 62.5 g ai/ha
  inhibition at 62.5 g/ha: 85%
[5]; use rate 125 g ai/ha, 20 DAT
  pest or weed control at 125 g/ha: 95%
[6]; 125 g ai/ha
  pest or weed control at 125 g/ha: 85%
[6]; 250 g ai/ha
  pest or weed control at 250 g/ha: 98%
[6]; use rate 15.625 g ai/ha, 20 DAT
  pest or weed control at 15.625 g/ha: 0%
[6]; use rate 31.25 g ai/ha
  inhibition at 31.25 g/ha: 55%
[6]; use rate 62.5 g ai/ha, 20 DAT
  pest or weed control at 62.5 g/ha: 85%
[6]; use rate 62.5 g ai/ha
  inhibition at 62.5 g/ha: 85%
[6]; use rate 125 g ai/ha, 20 DAT
  pest or weed control at 125 g/ha: 95%
[6]; use rate 125 g ai/ha
  inhibition at 125 g/ha: 95%
[7]; Phalaris canariensis, 480 h, 125 g ai/ha, read-out: observed % activity 20 DAT
  pest or weed control at 125 g/ha: 70%
[7]; Phalaris canariensis, 480 h, 500 g ai/ha, read-out: observed % activity 20 DAT
  pest or weed control at 500 g/ha: 98%
[7]; Phalaris canariensis, 480 h, use rate 15.625 g ai/ha, 20 DAT, read-out: observed % activity 20 DAT
  pest or weed control at 15.625 g/ha: 10%
[7]; Phalaris canariensis, 480 h, use rate 31.25 g ai/ha, 20 DAT, read-out: observed % activity 20 DAT
  pest or weed control at 31.25 g/ha: 55%
[7]; Phalaris canariensis, 480 h, use rate 31.25 g ai/ha, read-out: observed % activity 20 DAT
  inhibition at 31.25 g/ha: 55%
[7]; Phalaris canariensis, 480 h, use rate 62.5 g ai/ha, 20 DAT, read-out: observed % activity 20 DAT
  pest or weed control at 62.5 g/ha: 65%
[7]; Phalaris canariensis, 480 h, use rate 125 g ai/ha, 20 DAT, read-out: observed % activity 20 DAT
  pest or weed control at 125 g/ha: 80%
[7]; Phalaris canariensis, 480 h, use rate 125 g ai/ha, read-out: observed % activity 20 DAT
  inhibition at 125 g/ha: 80%
[7]; 125 g ai/ha
  observed % activity 20 DAT: 70%
[8]; Setaria faberi, 480 h, use rate 15.625 g ai/ha, read-out: observed % activity 20 DAT
  inhibition at 15.625 g/ha: 85%
[8]; Setaria faberi, 480 h, use rate 31.25 g ai/ha, read-out: observed % activity 20 DAT
  inhibition at 31.25 g/ha: 98%
[8]; use rate 31.25 g ai/ha, 20 DAT
  observed % activity 20 DAT: 98%
[9]; 55 g ai/ha
  observed % activity 20 DAT: 95%
[9]; 250 g ai/ha
  observed % activity 20 DAT: 85%
[10]; 125 g ai/ha
  pest or weed control at 125 g/ha: 98%
[10]; 250 g ai/ha
  pest or weed control at 250 g/ha: 98%
[10]; 500 g ai/ha
  pest or weed control at 500 g/ha: 98%
[11]; 125 g ai/ha
  pest or weed control at 125 g/ha: 25%
[11]; 500 g ai/ha
  pest or weed control at 500 g/ha: 75%
[11]; use rate 62.5 g ai/ha, 20 DAT
  pest or weed control at 62.5 g/ha: 0%
[11]; use rate 62.5 g ai/ha
  inhibition at 62.5 g/ha: 0%
[11]; use rate 125 g ai/ha
  inhibition at 125 g/ha: 35%
[12]; 250 g ai/ha
  pest or weed control at 250 g/ha: 75%
[12]; use rate 31.25 g ai/ha, 20 DAT
  pest or weed control at 31.25 g/ha: 0%
[12]; use rate 62.5 g ai/ha, 20 DAT
  pest or weed control at 62.5 g/ha: 0%
[12]; use rate 125 g ai/ha, 20 DAT
  pest or weed control at 125 g/ha: 0%
[12]; use rate 31.25 g ai/ha
  inhibition at 31.25 g/ha: 0%
[12]; use rate 62.5 g ai/ha
  inhibition at 62.5 g/ha: 0%
[12]; use rate 125 g ai/ha
  inhibition at 125 g/ha: 0%
